From ChEMBL document CHEMBL3112455, “Synthesis of 6-tetrazolyl-substituted sulfocoumarins acting as highly potent and selective inhibitors of the tumor-associated carbonic anhydrase isoforms IX and XII” (Bioorg Med Chem, 2014)
pKi: −log10 of the molar value.

Legend:
[1] = molecular target: Carbonic anhydrase 2 (Homo sapiens, UniProt P00918); assay: Inhibition of human recombinant cytosolic carbonic anhydrase 2 after 6 hrs by stopped flow CO2 hydration method
[2] = molecular target: Carbonic anhydrase 1 (Homo sapiens, UniProt P00915); assay: Inhibition of human recombinant cytosolic carbonic anhydrase 1 after 6 hrs by stopped flow CO2 hydration method
[3] = molecular target: Carbonic anhydrase 9 (Homo sapiens, UniProt Q16790)
Description: Inhibition of human recombinant transmembrane carbonic anhydrase 9 after 6 hrs by stopped flow CO2 hydration method

[4] = molecular target: Carbonic anhydrase 12 (Homo sapiens, UniProt O43570); assay: Inhibition of human recombinant transmembrane carbonic anhydrase 12 after 6 hrs by stopped flow CO2 hydration method
Chain of Carbonic anhydrase 12 (O43570 whole entry): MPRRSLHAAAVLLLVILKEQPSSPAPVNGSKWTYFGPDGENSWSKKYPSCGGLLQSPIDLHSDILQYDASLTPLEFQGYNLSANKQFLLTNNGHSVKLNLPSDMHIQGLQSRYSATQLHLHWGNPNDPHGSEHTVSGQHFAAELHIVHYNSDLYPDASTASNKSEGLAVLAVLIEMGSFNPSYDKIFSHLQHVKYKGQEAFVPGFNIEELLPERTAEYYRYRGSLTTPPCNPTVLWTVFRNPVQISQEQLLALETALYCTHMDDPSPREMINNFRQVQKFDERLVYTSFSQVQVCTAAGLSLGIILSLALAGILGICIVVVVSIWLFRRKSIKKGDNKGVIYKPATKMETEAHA

Chain of Carbonic anhydrase 1 (P00915 whole entry): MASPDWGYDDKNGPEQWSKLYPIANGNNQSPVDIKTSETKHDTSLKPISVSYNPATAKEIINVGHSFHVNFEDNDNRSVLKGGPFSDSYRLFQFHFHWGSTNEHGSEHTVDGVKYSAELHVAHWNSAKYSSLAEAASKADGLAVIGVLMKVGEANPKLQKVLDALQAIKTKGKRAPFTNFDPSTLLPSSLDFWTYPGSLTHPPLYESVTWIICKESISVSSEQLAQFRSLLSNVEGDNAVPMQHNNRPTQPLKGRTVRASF

Row | Compound | pKi [1] | pKi [2] | pKi [4] | pKi [3]
1 | Cc1cccc(-n2nnnc2-c2ccc3c(c2)C=CS(=O)(=O)O3)c1 | < 5.00 | < 5.00 |  | 7.57
2 | O=S1(=O)C=Cc2cc(-c3nnnn3-c3ccc(Cl)cc3)ccc2O1 | < 5.00 | < 5.00 |  | 8.06
3 | Cc1nnnn1-c1ccc2c(c1)C=CS(=O)(=O)O2 | < 5.00 | < 5.00 |  | 
4 | O=S1(=O)C=Cc2cc(-c3nnnn3-c3ccc(C(F)(F)F)cc3)ccc2O1 | < 5.00 | < 5.00 |  | 7.41
5 | O=S1(=O)C=Cc2cc(-c3nnnn3-c3ccc(Cl)c(Cl)c3)ccc2O1 | < 5.00 | < 5.00 |  | 8.09
6 | O=S1(=O)C=Cc2cc(-n3cnnn3)ccc2O1 | < 5.00 | < 5.00 |  | 

Second part, led by results:

Row | pKi [1] | pKi [2] | pKi [4] | Compound | pKi [3]
7 | < 5.00 | < 5.00 |  | O=S1(=O)C=Cc2cc(-c3nnnn3-c3ccccc3)ccc2O1 | 
8 | < 5.00 | < 5.00 |  | COc1ccc(-n2nnnc2-c2ccc3c(c2)C=CS(=O)(=O)O3)cc1 | 8.06
9 | < 5.00 | < 5.00 |  | O=S1(=O)C=Cc2cc(-c3nnnn3-c3cccc(Br)c3)ccc2O1 | 7.25
10 | < 5.00 | < 5.00 |  | Cc1ccc(-n2nnnc2-c2ccc3c(c2)C=CS(=O)(=O)O3)cc1 | 8.04
11 | < 5.00 | < 5.00 | 8.27 | O=S1(=O)C=Cc2cc(-c3nnnn3-c3ccc(F)c(Cl)c3)ccc2O1 | 8.16
12 | < 5.00 | < 5.00 |  | O=S1(=O)C=Cc2cc(-c3nnnn3-c3cccc4ccccc34)ccc2O1 | 
